In PubChem BioAssay (NCI) one finds TGI and GI50 data, which are given here for 14 compounds.

What all share (assay): DTP human tumour cell line panel, 48 h
Assay [1] concerns CAKI-1 renal.
For assay [2], the system named is CCRF-CEM leukemia.
For assay [3], the system named is MDA-MB-435.
For assay [4], the system named is NCI-H522 lung.
In assay [5] the test system is OVCAR-3 ovarian.
The subject of assay [6] is OVCAR-5 ovarian.
Assay [7] relates to SK-OV-3 ovarian.
The subject of assay [8] is UACC-257 melanoma.
Assay [9] concerns UO-31 renal.
Assay [10] relates to MDA-N.

SMILES strings stand for the structures.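 The compound was tested at five concentrations on cells cultured in 96-well plates, with a 48-hour exposure period. Abbreviation: GI50, concentration required for 50% inhibition of growth. Definition used: TGI = concentration required for complete inhibition of growth.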 Where a SMILES comes first, the peptide text is derived from it.

With `COc1c2c(c(OC)c3c1c(=O)c1ccccc1n3C)OCO2`, the TGI in [1] was more than 100 µM; in assay [2], more than 31.6 µM; in assay [3], 6.46 µM; in assay [4] it was more than 43.1 µM; in assay [5], more than 100 µM; in [6], more than 100 µM. Moreover, the TGI in assay [7], in [8] and in assay [9] was more than 100 µM in each case.

In the case of `CSC1=N/C(=C\c2ccc(C)cc2)C(=O)N1CN1CCOCC1`, the TGI in [2], in assay [3], in [10], in assay [4], in assay [5] and in assay [6] was more than 100 µM in each case. The TGI in assay [7] and in [9] was more than 100 µM in each case.

Consider `CCOC(=O)C1C(=O)CC(O)(OCC)C(C(=O)OCC)C1c1ccc(OC)cc1` (stereo unspecified), for which the TGI in [1], in [2], in assay [3], in [10], in assay [4] and in assay [5] was more than 100 µM each time. Besides, the TGI in assay [6], in [8] and in [9] was more than 100 µM throughout.

Turning to `O=C(OCCN=C1c2ccccc2CCc2ccccc21)c1cc([N+](=O)[O-])cc([N+](=O)[O-])c1`, the TGI is more than 31.6 µM in [1]; more than 100 µM in [2]; more than 31.6 µM in assay [3]; more than 31.6 µM in assay [10]; more than 31.6 µM in assay [5]; more than 31.6 µM in [6]. The TGI in assay [7] is more than 100 µM; in assay [8], more than 31.6 µM; in assay [9] it was more than 100 µM.

Take `CCCC1NC(=O)C(CC(C)C)NC(=O)c2cccc(n2)C(=O)NC(CC(C)C)C(=O)NC(CCC)C(=O)NC(C(=O)OC)CCCCNC1=O` (stereo unspecified): the TGI is more than 100 µM in assay [1]; 36.6 µM in assay [2]; more than 100 µM in assay [3]; more than 100 µM in assay [10]; more than 100 µM in [5]; more than 100 µM in assay [6]. The total growth inhibition concentration (TGI) is 91.5 µM in assay [7], more than 100 µM in [8] and more than 100 µM in [9].

Consider `CN(C1=NCCO1)c1cccc2ccccc12`, for which the TGI in assay [1], in assay [2], in [3], in [10], in assay [4] and in assay [5] was more than 10 µM throughout. In addition, the TGI in [6], in assay [7] and in assay [9] was more than 10 µM throughout.

As for `CC(=O)/C(C=Nc1c(C)n(C)n(-c2ccccc2)c1=O)=C(/C)O`, the concentration for total growth inhibition (TGI) in assay [1], in assay [2], in assay [3], in [4], in assay [5] and in assay [6] was more than 100 µM in each case. The TGI in assay [7], in assay [8] and in [9] was more than 100 µM throughout.

As for `O=C(NN=C1CCN(Cc2ccccc2)CC1)C(O)(c1ccccc1)c1ccccc1`, the TGI in assay [2], in [3], in assay [6], in [7], in assay [8] and in assay [9] was more than 100 µM each time.

With `CC1NC(=O)CNC(=O)CNC(=O)C(Cc2ccc(O)cc2)NC(=O)C(C(C)C)NC(=O)C(C)NC1=O` (stereo unspecified) (cyclo(GGAAVY); configuration not given here), the TGI in assay [1], in [2], in assay [4], in assay [5], in [6] and in assay [7] was more than 100 µM throughout. For the same compound, the total growth inhibition concentration (TGI) in assay [8] and in [9] was more than 100 µM each time. Also, in assay [4], the GI50 is more than 100 µM.

For `CN(C)CCCNc1c(O)c2c(c(O)c1Cl)C(=O)C=CC2=O`, the TGI in assay [1] is more than 10 µM; in assay [2] it was 5.7 µM; in assay [3], 4.33 µM; in assay [10], 6.38 µM; in assay [5], 6.6 µM; in assay [6] it was 3 µM. In addition, the TGI in assay [7] was more than 10 µM; in assay [8], 3.71 µM; in assay [9], more than 10 µM.

In the case of `COc1ccc2c(c1)C(N)CC2=O` (stereo unspecified), the TGI in assay [1], in assay [2], in assay [3], in assay [4], in assay [5] and in [6] was more than 100 µM each time. In addition, the TGI in assay [7], in [8] and in [9] was more than 100 µM throughout.

As to `OC1(c2ccccc2)CC2CCC(C1)N2CCc1ccccc1` (stereo unspecified), the TGI in [1], in [2], in assay [3], in [10], in [5] and in assay [6] was more than 100 µM in each case. Besides, the total growth inhibition concentration (TGI) in assay [7] is more than 100 µM; in [8], 59.1 µM; in assay [9], more than 100 µM.

Regarding `CCc1ccc(-c2nnc(COc3ccc(-c4nc5ccc(C)cc5[nH]4)cc3OC)o2)cc1`, the GI50 in [1] is 2.07 µM; in assay [2], 3.06 µM; in assay [3] it was 2.51 µM; in assay [4], 3.1 µM; in assay [5], 2.23 µM; in [6], 5.21 µM. Further, the GI50 is 3.29 µM in assay [7], 3.57 µM in assay [8] and 1.63 µM in [9]. The TGI in assay [1] was 4.92 µM; in [2], more than 100 µM; in [3], 6.97 µM; in assay [4], 25.2 µM; in assay [5], 4.49 µM; in assay [6], more than 100 µM. Also, the concentration for total growth inhibition (TGI) in assay [7] stood at 11.1 µM; in assay [8], 16.2 µM; in [9], 3.17 µM.

For the compound `CNC(=S)/C(=N\Nc1nc[nH]c1C(N)=O)C(N)=S`, the TGI in [1] was more than 94.4 µM; in assay [3], more than 100 µM; in assay [10], more than 63 µM; in assay [4], more than 91.7 µM; in assay [5], more than 50.2 µM; in [6] it was more than 100 µM. Further, the total growth inhibition concentration (TGI) in assay [7] is more than 31.6 µM; in assay [8], more than 100 µM; in [9] it was 18.3 µM.

As usually defined, the TGI is the concentration giving total growth inhibition. High values mean less potent growth arrest, low ones more potent growth arrest. By GI50 is commonly meant the concentration that inhibits growth by half.
